The subject of one data set is interscapular BAT. Put plainly: Time course and dose optimization of probe signal in BAT area after i.v. injection. The format is in vivo, mice. The protocol: (§1) Next the time course of CRANAD-2 and CRANAD-3 accumulation in BAT area was investigated. […] Similarly, the signal of CRANAD-3 reached the uptake peak around one hour, and then gradually washed out (FIG. 8c-d). Accumulation of CRANAD-2 and -3 in BAT was further confirmed with ex vivo histology of the dissected BAT slices, performed as follows. The dissected BAT was fixed with 4% formalin at 4° C. overnight, and then embedded into OCT. BAT tissue was cut into 7 micron thickness slices, washed with PBS buffer, and co-stained with DAPI (Vectra Shield, Vector Lab, Burlingame, Calif.). Images were acquired with fast exposure to capture the dye signal in the oil droplets. To outline cell membrane cell autofluorescence was captured with long exposure after image of the dye signal from oil droplets was already acquired. To further validate the capacity of CRANAD-29 for BAT labeling, ex vivo histological microscopic imaging with CRANAD-29 was conducted. […] Gold standard H&E staining also provided similar images (FIG. 10a). […] The injection dose of CRANAD-29 was optimized, and the fluorescence signal reached its plateau at 0.4 mg/kg (FIG. 11). In the following studies, 0.1 mg/kg dose was used.

Data set [1] is described as follows: Excitation and emission wavelengths of BAT imaging agents. It counts as physicochemical. As to the method: In some embodiments, the methods include irradiating the mammal with light of the appropriate wavelength to excite the BAT imaging agent, and detecting emissions therefrom.
Fluorescent dyes were purchased from Exciton Inc. (Dayton, Ohio) and Invitrogen. The reagents used for the synthesis were purchased from Aldrich and used without further purification. Column chromatography was performed on silica gel (SiliCycle Inc., 60 Å, […]) slurry packed into glass columns. 1H, 13C NMR spectra were recorded at 500 MHz and 125 MHz respectively, and reported in ppm downfield from tetramethylsilane. Fluorescence studies were carried out using a F-4500 Fluorescence Spectrophotometer (Hitachi). Mass spectra were obtained at Harvard University, Department of Chemistry Instrumentation Facility. Microscopic images were acquired with Nikon Eclipse 50i microscope. In vivo NIR imaging was performed using the IVIS® Spectrum animal imaging system (Caliper LifeSciences, Perkin Elmer, Hopkinton, Mass.), and data analysis was conducted using LivingImage® 4.2.1 software.

A further data set has as its system brown adipose cells. Put plainly: Ex vivo histology of dissected BAT slices. Set-up: species or system mice. The settings on record: fluorescence microscopy. As to the method: as §1
For data set [2], the system named is undifferentiated 3T3-L1 cells. Kind of data set: Probe uptake in undifferentiated 3T3-L1 cells (IVIS imaging). It counts as cell-based. The protocol:
To investigate the facilitated diffusion of CRANAD-2, the time courses of CRANAD-2 uptake in 3T3-L1 cells were compared before and after differentiation. Two-photon imaging for 3T3-L1 cells was performed as follows. Fibroblast 3T3-L1 cells were differentiated following the protocol provided by Zenbio, Inc. (protocol No. ZBM0009.02). Ten microliters of CRANAD-2 (250 μM in DMSO) was added to the differentiated cells (1.0 ml). Cells were imaged after 10 min of incubation. A 940 nm laser was first used to capture an image for CRANAD-2 in 570-620 nm channel (Prairie Two-photon microscope, Middleton, Wis.). Next, the laser was tuned to 750 nm to capture autofluorescence of the cells to outline cell morphology.
IVIS imaging of 3T3-L1 cells with CRANAD-2 was performed as follows. To a 6-well plate seeded with preadipocytes or differentiated adipocytes, a 10 μL solution of CRANAD-2 (250 μM in DMSO) was added. The plate was subjected to imaging using IVIS imaging system with Ex=605 nm, Em=660 nm before and after addition of CRANAD-2. For triglyceride competition, the same protocol for two-photon imaging was used. The images were acquired at 20 min after addition of CRANAD-2. Studies were performed in triplicate.
The uptake of CRANAD-29 in 3T3-L1 cells before and after differentiation was compared. IVIS imaging of 3T3-L1 cells with CRANAD-29 was performed as follows. To a 6-well plate seeded with preadipocytes or differentiated adipocytes, a 10 μL solution of CRANAD-29 (250 μM in DMSO) was added. The plate was subjected to imaging using IVIS imaging system with Ex=640 nm, Em=700 nm before and after addition of CRANAD-29. For triglyceride competition and Hexarelin inhibition, the similar protocol for CRANAD-2 imaging was used. The final concentration of hexarelin was 12.5 μM, and the images were acquired at 3 hours after addition of CRANAD-29 and triglyceride/Hexarelin. Studies were performed in triplicate.

Consider two molecules from patent US9757477B2, “Imaging brown adipose tissue with curcumin derivatives” (The General Hospital Corporation, priority 2013, dated 2017).

SMILES strings stand for the structures.

In the case of `CN(C)c1ccc(/C=C/C2=CC(=C/C=C3C=CC(=[N+](C)C)C=C3)/O[B-](F)(F)O2)cc1` [CRANAD-2], in the data set with interscapular BAT (i.v. injection), the “cleared by” value is listed as at most 720 min, the signal detectable until entry is on record as “at least 180 min” and the “time of uptake peak in BAT area after injection” value is listed as 120 min. For the same molecule, in data set [1], the “Emission λ” value turned out to be 680 nm and the “Excitation λ” value stood at 605 nm. The “labeling in ex vivo histology of BAT slices” value in the data set with brown adipose cells was “labeled oil droplets in brown adipose cells”. The “time to maximal uptake” value in data set [2] was at most 1 min.
With `F[B-]1(F)OC(/C=C/c2cc3c4c(c2)CCCN4CCC3)=CC(/C=C/c2cc3c4c(c2)CCCN4CCC3)=[O+]1` [CRANAD-29], the “injection dose at which fluorescence signal reached its plateau” value in the data set with interscapular BAT (dose optimization) is recorded as 0.4 mg/kg. Also, in the data set with interscapular BAT (mouse, in vivo, iv), the “time at which uptake reached plateau after probe injection” value is on record as “around 2 h”. In addition, in data set [1], the “Emission λ” value was determined as 700 nm and the “Excitation λ” value is given as 640 nm. The “labeling in ex vivo histology of BAT slices” value in the data set on brown adipose cells is listed as “capable of labeling BAT cells”. Moreover, the “uptake in undifferentiated cells over the time course” value in data set [2] was “no apparent uptake”.
